Bridge positions count the residues as written; N and C are the ends. Square brackets hold non-standard residues; d marks the D form. Peptide text beside a SMILES is read from it. * marks the point of attachment. ξ: configuration not given here. Phe(4-(4-pyridyl)) = N[C@@H](Cc1ccc(-c2ccncc2)cc1)C(=O)O; Tyr(3-NO2) = N[C@@H](Cc1ccc(O)c([N+](=O)[O-])c1)C(=O)O; Phe(4-COOH) = N[C@@H](Cc1ccc(C(=O)O)cc1)C(=O)O; Bip = N[C@@H](Cc1ccc(-c2ccccc2)cc1)C(=O)O; Phe(2-Cl) = N[C@@H](Cc1ccccc1Cl)C(=O)O; Phe(3-Me) = Cc1cccc(C[C@H](N)C(=O)O)c1; Phe(4-F) = N[C@@H](Cc1ccc(F)cc1)C(=O)O; Val(3-OH) = CC(C)(O)[C@H](N)C(=O)O; 2Pal = N[C@@H](Cc1ccccn1)C(=O)O; 4Pal = N[C@@H](Cc1ccncc1)C(=O)O; Cha = N[C@@H](CC1CCCCC1)C(=O)O; Cit = NC(=O)NCCC[C@H](N)C(=O)O; Ile(3ξ) = CCC(C)[C@H](N)C(=O)O; Thr(3ξ) = CC(O)[C@H](N)C(=O)O; Dap(Me) = CNC[C@H](N)C(=O)O; Carboxymethyl = O=C(O)C*; NMeA = CN[C@@H](C)C(=O)O; Orn = NCCC[C@H](N)C(=O)O; Dab = NCC[C@H](N)C(=O)O; Dap = NC[C@H](N)C(=O)O
Molecular target: T1, PE-labeled human PD-L1-Ig binding to Jurkat cell line over-expressing human PD-1 (Jurkat-PD-1) (Homo sapiens, UniProt Q15116)
T1 construct: expressed in transfected cells; host or cells: Jurkat
Assay: Jurkat-PD-1 Cell Binding High-Content Screening Assay (CBA): Method 1
Settings: Jurkat-hPD-1 cells, PE-labeled PD-L1-Ig 20 nM final; read-out: Jurkat HPDL1 PD1 IC50 (uM) (Method 1)

T1 sequence (Q15116 25-288): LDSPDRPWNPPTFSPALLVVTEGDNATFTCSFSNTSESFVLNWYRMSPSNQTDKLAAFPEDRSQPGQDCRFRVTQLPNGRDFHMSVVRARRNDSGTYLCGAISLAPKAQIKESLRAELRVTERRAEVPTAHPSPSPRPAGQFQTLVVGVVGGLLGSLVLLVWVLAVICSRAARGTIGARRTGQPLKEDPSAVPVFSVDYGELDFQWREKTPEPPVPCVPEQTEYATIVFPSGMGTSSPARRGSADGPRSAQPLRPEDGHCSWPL

SMILES	IC50
CC(C)C[C@@H]1NC(=O)[C@H](CCN)NC(=O)[C@@H](CC(C)C)NC(=O)[C@H](C)N(C)C(=O)[C@H](CCCNC(N)=O)NC(=O)[C@H](Cc2ccc(-c3ccccc3)cc2)NC(=O)[C@H](C(C)C)NC(=O)[C@H](Cc2c[nH]c3ccccc23)NC(=O)[C@H](CC(=O)O)NC(=O)[C@H](Cc2ccc(O)c([N+](=O)[O-])c2)NC(=O)[C@H](Cc2ccccn2)NC(=O)CSC[C@@H](C(=O)N[C@@H](C)C(N)=O)NC(=O)[C@H]([C@@H](C)O)NC(=O)[C@H](C(C)C)NC1=O [Compound 1337] ({CH2CO}-[2Pal][Tyr(3-NO2)]DWV[Bip][Cit][NMeA][dL][Dab]LVTCA-NH2; thioether N-14)	0.28 µM
CC(C)C[C@@H]1NC(=O)[C@H](CCCNC(=N)N)NC(=O)[C@@H](CC(C)C)NC(=O)[C@H](C)N(C)C(=O)[C@H](CCCNC(=N)N)NC(=O)[C@H](Cc2ccc(-c3ccccc3)cc2)NC(=O)[C@H](C(C)C)NC(=O)[C@H](Cc2ccccc2Cl)NC(=O)[C@H](CC(=O)O)NC(=O)[C@H](Cc2ccc(O)cc2)NC(=O)[C@H](CC(N)=O)NC(=O)CSC[C@@H](C(=O)N[C@@H](C)C(N)=O)NC(=O)[C@H]([C@@H](C)O)NC(=O)[C@H](C(C)C)NC1=O [Compound 1193] ({CH2CO}-NYD[Phe(2-Cl)]V[Bip]R[NMeA][dL]RLVTCA-NH2; thioether N-14)	0.35 µM
CC(C)C[C@@H]1NC(=O)[C@H](CCN)NC(=O)[C@@H](CC(C)C)NC(=O)[C@H](C)N(C)C(=O)[C@H](CCCNC(=N)N)NC(=O)[C@H](Cc2ccc(-c3ccccc3)cc2)NC(=O)[C@H](C(C)C)NC(=O)[C@H](Cc2c[nH]c3ccccc23)NC(=O)[C@H](CC(=O)O)NC(=O)[C@H](Cc2ccc(O)cc2)NC(=O)[C@H](CC(N)=O)NC(=O)CSC[C@@H](C(=O)N[C@@H](CO)C(N)=O)NC(=O)[C@H]([C@@H](C)O)NC(=O)[C@H](C(C)C)NC1=O [Compound 1179] ({CH2CO}-NYDWV[Bip]R[NMeA][dL][Dab]LVTCS-NH2; thioether N-14)	0.07 µM
CC(C)C[C@@H]1NC(=O)[C@H](CCCNC(=N)N)NC(=O)[C@@H](CC(C)C)NC(=O)[C@H](C)N(C)C(=O)[C@H](CCCNC(=N)N)NC(=O)[C@H](Cc2ccc(-c3ccncc3)cc2)NC(=O)[C@H](C(C)C)NC(=O)[C@H](Cc2c[nH]c3ccccc23)NC(=O)[C@H](CC(=O)O)NC(=O)[C@H](Cc2ccc(O)cc2)NC(=O)[C@H](Cc2ccccc2)NC(=O)CSC[C@@H](C(=O)N[C@@H](C)C(N)=O)NC(=O)[C@H]([C@@H](C)O)NC(=O)[C@H](C(C)C)NC1=O [Compound 1078] ({CH2CO}-FYDWV[Phe(4-(4-pyridyl))]R[NMeA][dL]RLVTCA-NH2; thioether N-14)	0.48 µM
Cc1cccc(C[C@@H]2NC(=O)[C@H](CC(=O)O)NC(=O)[C@H](Cc3ccc(C(=O)O)cc3)NC(=O)[C@H](Cc3ccc(F)cc3)NC(=O)CSC[C@@H](C(=O)N[C@@H](CCN)C(N)=O)NC(=O)[C@H](CCC(=O)O)NC(=O)[C@H](C(C)(C)O)NC(=O)[C@H](CC3CCCCC3)NC(=O)[C@H](CCN)NC(=O)[C@@H](CC(C)C)NC(=O)[C@H](C)N(C)C(=O)[C@H](Cc3ccc(C(=O)O)cc3)NC(=O)[C@H](Cc3ccc(-c4ccccc4)cc3)NC(=O)[C@H](Cc3ccc(C(=O)O)cc3)NC2=O)c1 [Compound 2207] ({CH2CO}-[Phe(4-F)][Phe(4-COOH)]D[Phe(3-Me)][Phe(4-COOH)][Bip][Phe(4-COOH)][NMeA][dL][Dab][Cha][Val(3-OH)]EC[Dab]-NH2; thioether N-14)	0.01 µM
CC(C)C[C@@H]1NC(=O)[C@H](CCCNC(=N)N)NC(=O)[C@@H](CC(C)C)NC(=O)[C@H](C)N(C)C(=O)[C@H](CCCNC(=N)N)NC(=O)[C@H](Cc2ccc(-c3ccccc3)cc2)NC(=O)[C@H](C(C)C)NC(=O)[C@H](Cc2c[nH]c3ccccc23)NC(=O)[C@H](CC(=O)O)NC(=O)[C@H](Cc2ccc(C(=O)O)cc2)NC(=O)[C@H](Cc2ccncc2)NC(=O)CSC[C@@H](C(=O)N[C@@H](C)C(N)=O)NC(=O)[C@H]([C@@H](C)O)NC(=O)[C@H](C(C)C)NC1=O [Compound 1077] ({CH2CO}-[4Pal][Phe(4-COOH)]DWV[Bip]R[NMeA][dL]RLVTCA-NH2; thioether N-14)	0.05 µM
CCC(C)[C@@H]1NC(=O)[C@H](Cc2ccc(-c3ccccc3)cc2)NC(=O)[C@H](Cc2ccc(O)cc2)NC(=O)[C@H](Cc2cccc(C)c2)NC(=O)[C@H](CC(=O)O)NC(=O)[C@H](Cc2ccc(OCC(=O)O)cc2)NC(=O)[C@H](C(C)O)NC(=O)CSC[C@@H](C(=O)N[C@@H](CO)C(N)=O)NC(=O)[C@H](C(C)O)NC(=O)[C@H](C(C)C)NC(=O)[C@H](CC2CCCCC2)NC(=O)[C@H](CCN)NC(=O)[C@@H](CC(C)C)NC(=O)[C@H](C)N(C)C1=O (stereo partly drawn) [Compound 2121] ({CH2CO}-[Thr(3ξ)]Y(Carboxymethyl)D[Phe(3-Me)]Y[Bip][Ile(3ξ)][NMeA][dL][Dab][Cha]V[Thr(3ξ)]CS-NH2; thioether N-14)	0.04 µM
CC(C)C[C@@H]1NC(=O)[C@H](CCCN)NC(=O)[C@@H](CC(C)C)NC(=O)[C@H](C)N(C)C(=O)[C@H](C(C)C)NC(=O)[C@H](Cc2ccc(-c3ccccc3)cc2)NC(=O)[C@H](C(C)C)NC(=O)[C@H](Cc2c[nH]c3ccccc23)NC(=O)[C@H](CC(=O)O)NC(=O)[C@H](Cc2ccc(O)cc2)NC(=O)[C@H](CC(N)=O)NC(=O)CSC[C@@H](C(=O)N[C@@H](C)C(N)=O)NC(=O)[C@H]([C@@H](C)O)NC(=O)[C@H](C(C)C)NC1=O [Compound 1243] ({CH2CO}-NYDWV[Bip]V[NMeA][dL][Orn]LVTCA-NH2; thioether N-14)	0.01 µM
Cc1cccc(C[C@@H]2NC(=O)[C@H](CC(=O)O)NC(=O)[C@H](Cc3ccc(OCC(=O)O)cc3)NC(=O)[C@H]([C@@H](C)O)NC(=O)CSC[C@@H](C(N)=O)NC(=O)[C@H](CCC(N)=O)NC(=O)[C@H](C(C)C)NC(=O)[C@H](CC3CCCCC3)NC(=O)[C@H](CC(N)=O)NC(=O)[C@@H](CC(C)C)NC(=O)[C@H](C)N(C)C(=O)[C@H](Cc3ccc(OCC(=O)O)cc3)NC(=O)[C@H](Cc3ccc(-c4ccccc4)cc3)NC(=O)[C@H](Cc3ccc(OCC(=O)O)cc3)NC2=O)c1 [Compound 1677] ({CH2CO}-TY(Carboxymethyl)D[Phe(3-Me)]Y(Carboxymethyl)[Bip]Y(Carboxymethyl)[NMeA][dL]N[Cha]VQC-NH2; thioether N-14)	0.16 µM
CC(C)C[C@H]1NC(=O)[C@H](C)N(C)C(=O)[C@H](C(C)C)NC(=O)[C@H](Cc2ccc(-c3ccccc3)cc2)NC(=O)[C@H](C(C)C)NC(=O)[C@H](Cc2c[nH]c3ccccc23)NC(=O)[C@H](CC(=O)O)NC(=O)[C@H](Cc2ccc(O)cc2)NC(=O)[C@H](CC(N)=O)NC(=O)CSC[C@@H](C(=O)N[C@@H](C)C(N)=O)NC(=O)[C@H]([C@@H](C)O)NC(=O)[C@H](C(C)C)NC(=O)[C@H](CC2CCCCC2)NC(=O)[C@H](CCCNC(=N)N)NC1=O [Compound 1294] ({CH2CO}-NYDWV[Bip]V[NMeA][dL]R[Cha]VTCA-NH2; thioether N-14)	0.3 µM
Cc1cccc(C[C@@H]2NC(=O)[C@H](CC(=O)O)NC(=O)[C@H](Cc3ccc(C(=O)O)cc3)NC(=O)[C@H](C(C)O)NC(=O)CSC[C@@H](C(=O)N[C@@H](CCN)C(N)=O)NC(=O)[C@H](CO)NC(=O)[C@H](C(C)(C)O)NC(=O)[C@H](CC3CCCCC3)NC(=O)[C@H](CCN)NC(=O)[C@@H](CC(C)C)NC(=O)[C@H](C)N(C)C(=O)[C@H](Cc3ccc(OCC(=O)O)cc3)NC(=O)[C@H](Cc3ccc(-c4ccccc4)cc3)NC(=O)[C@H](Cc3ccc(OCC(=O)O)cc3)NC2=O)c1 (stereo partly drawn) [Compound 2151] ({CH2CO}-[Thr(3ξ)][Phe(4-COOH)]D[Phe(3-Me)]Y(Carboxymethyl)[Bip]Y(Carboxymethyl)[NMeA][dL][Dab][Cha][Val(3-OH)]SC[Dab]-NH2; thioether N-14)	0.02 µM
CC(C)C[C@@H]1NC(=O)[C@H](CCCCN)NC(=O)[C@@H](CC(C)C)NC(=O)[C@H](C)N(C)C(=O)[C@H](CCCNC(=N)N)NC(=O)[C@H](Cc2ccc(-c3ccccc3)cc2)NC(=O)[C@H](C(C)C)NC(=O)[C@H](Cc2c[nH]c3ccccc23)NC(=O)[C@H](CC(=O)O)NC(=O)[C@H](Cc2ccc(O)cc2)NC(=O)[C@H](CC(N)=O)NC(=O)CSC[C@@H](C(=O)N[C@@H](C)C(N)=O)NC(=O)[C@H]([C@@H](C)O)NC(=O)[C@H](C(C)C)NC1=O [Compound 1280] ({CH2CO}-NYDWV[Bip]R[NMeA][dL]KLVTCA-NH2; thioether N-14)	0.08 µM
CNC[C@@H]1NC(=O)CSC[C@@H](C(=O)N[C@@H](C)C(N)=O)NC(=O)[C@H](C(C)O)NC(=O)[C@H](C(C)C)NC(=O)[C@H](CC(C)C)NC(=O)[C@H](CCN)NC(=O)[C@@H](CC(C)C)NC(=O)[C@H](C)N(C)C(=O)[C@H](C(C)C)NC(=O)[C@H](Cc2ccc(-c3ccccc3)cc2)NC(=O)[C@H](C(C)C)NC(=O)[C@H](Cc2c[nH]c3ccccc23)NC(=O)[C@H](CC(=O)O)NC(=O)[C@H](Cc2ccc(O)cc2)NC1=O (stereo partly drawn) [Compound 2041] ({CH2CO}-[Dap(Me)]YDWV[Bip]V[NMeA][dL][Dab]LV[Thr(3ξ)]CA-NH2; thioether N-14)	0.02 µM
Cc1cccc(C[C@@H]2NC(=O)[C@H](CC(=O)O)NC(=O)[C@H](Cc3ccc(OCC(=O)O)cc3)NC(=O)[C@H](CN)NC(=O)CSC[C@@H](C(=O)N[C@@H](CCN)C(N)=O)NC(=O)[C@H](CCCN)NC(=O)[C@H](C(C)C)NC(=O)[C@H](CC(C)C)NC(=O)[C@H](CCN)NC(=O)[C@@H](C)NC(=O)[C@H](C)N(C)C(=O)[C@H](Cc3ccc(O)cc3)NC(=O)[C@H](Cc3ccc(-c4ccccc4)cc3)NC(=O)[C@H](Cc3ccc(O)cc3)NC2=O)c1 [Compound 1874] ({CH2CO}-[Dap]Y(Carboxymethyl)D[Phe(3-Me)]Y[Bip]Y[NMeA][dA][Dab]LV[Orn]C[Dab]-NH2; thioether N-14)	0.28 µM
CC(C)C[C@@H]1NC(=O)[C@H](CCN)NC(=O)[C@@H](CC(C)C)NC(=O)[C@H](C)N(C)C(=O)[C@H](CCCNC(N)=O)NC(=O)[C@H](Cc2ccc(-c3ccccc3)cc2)NC(=O)[C@H](C(C)C)NC(=O)[C@H](Cc2c[nH]c3ccccc23)NC(=O)[C@H](CC(=O)O)NC(=O)[C@H](Cc2ccc(OCC(=O)O)cc2)NC(=O)[C@H](CC(N)=O)NC(=O)CSC[C@@H](C(=O)N[C@@H](C)C(N)=O)NC(=O)[C@H]([C@@H](C)O)NC(=O)[C@H](C(C)C)NC1=O [Compound 1321] ({CH2CO}-NY(Carboxymethyl)DWV[Bip][Cit][NMeA][dL][Dab]LVTCA-NH2; thioether N-14)	0.08 µM

Reference: US20240409585A1, “MACROCYCLIC IMMUNOMODULATORS” (priority 2021, published 2024)
